# Experimental data as given in ChEMBL document CHEMBL1137281, “Synthesis and biological evaluation of copper (II) complexes of sterically hindered o-aminophenol derivatives as antimicrobial agents” (2006).
# Columns and labels:
# Format in all cases: functional
# Serratia marcescens = test: Antimicrobial activity against Serratia marcescens
# Bacillus subtilis = test: Antibacterial activity against Bacillus subtilis
# Lipomyces lipofer = test: Antimicrobial activity against Lipomyces lipofer
# [1] = tested on: Staphylococcus saprophyticus; test: Antibacterial activity against Staphylococcus saprophyticus
# Pseudomonas aeruginosa = test: Antimicrobial activity against Pseudomonas aeruginosa
# Rhodotorula mucilaginosa = test: Antimicrobial activity against Rhodotorula rubra
# Aspergillus niger = test: Antifungal activity against Aspergillus niger
# Papiliotrema laurentii = test: Antifungal activity against Cryptococcus laurentii
# Cyberlindnera jadinii = test: Antimicrobial activity against Candida utilis; details: Williopsis jadinii
# Saccharomyces cerevisiae = test: Antimicrobial activity against Saccharomyces cerevisiae
# Komagataella pastoris = test: Antimicrobial activity against Pichia pastoris
# [2] = Antimicrobial activity against Hansenula sp.; details: Pichia
# Candida albicans = test: Antimicrobial activity against Candida albicans
# Candida boidinii = test: Antimicrobial activity against Candida boidinii
# Escherichia coli = test: Antibacterial activity against Escherichia coli
# Micrococcus luteus = test: Antimicrobial activity against Sarcina lutea
SMILES,MIC (Serratia marcescens),MIC (Bacillus subtilis),MIC (Lipomyces lipofer),MIC [1],MIC (Pseudomonas aeruginosa),MIC (Rhodotorula mucilaginosa),MIC (Aspergillus niger),MIC (Papiliotrema laurentii),MIC (Cyberlindnera jadinii),MIC (Saccharomyces cerevisiae),MIC (Komagataella pastoris),MIC [2],MIC (Candida albicans),MIC (Candida boidinii),MIC (Escherichia coli),MIC (Micrococcus luteus)
CC(C)(C)c1cc(Nc2ccccc2)c(O)c(C(C)(C)C)c1,> 50 µg/mL,> 50 µg/mL,> 50 µg/mL,> 50 µg/mL,> 50 µg/mL,> 50 µg/mL,> 50 µg/mL,> 50 µg/mL,> 50 µg/mL,> 50 µg/mL,> 50 µg/mL,> 50 µg/mL,> 50 µg/mL,> 50 µg/mL,> 50 µg/mL,> 50 µg/mL
CC(C)(C)c1cc(N)c(O)c(C(C)(C)C)c1,> 50 µg/mL,25 µg/mL,6.25 µg/mL,12.5 µg/mL,> 50 µg/mL,50 µg/mL,> 50 µg/mL,6.25 µg/mL,> 50 µg/mL,6.25 µg/mL,6.25 µg/mL,6.25 µg/mL,> 50 µg/mL,> 50 µg/mL,> 50 µg/mL,12.5 µg/mL
Nc1ccccc1O [QUESTIOMYCIN B],> 50 µg/mL,> 25 µg/mL,–,> 50 µg/mL,> 50 µg/mL,–,> 50 µg/mL,–,> 50 µg/mL,> 50 µg/mL,> 50 µg/mL,> 50 µg/mL,> 50 µg/mL,> 50 µg/mL,> 50 µg/mL,–
